pEC50: −log10 of the molar value.

This experiment can be described thus: Release of camptothecin-induced cell cycle arrest in NCI-H1299 cells mediated by CHEK1 inhibition.
On to `O=c1[nH]c2ccc(-c3cn[nH]c3)cc2cc1-c1cc2cc(CN3CCCCC3)ccc2[nH]1`, for which the pEC50 is 7.01.

For the molecule `N#Cc1ccc2[nH]c(=O)c(-c3cc4cc(CN5CCCCC5)ccc4[nH]3)cc2c1` [2-oxo-3-(5-(piperidin-1-ylmethyl)-1H-indol-2-yl)-1,2-dihydroquinoline-6-carbonitrile], the pEC50 was 6.77.

In turn, `NC(=O)c1ccc2[nH]c(=O)c(-c3cc4cc(CN5CCCCC5)ccc4[nH]3)cc2c1` [2-oxo-3-(5-(piperidin-1-ylmethyl)-1H-indol-2-yl)-1,2-dihydroquinoline-6-carboxamide] showed a pEC50 of 6.28.

Turning to `COCC(=O)N1CCN(Cc2ccc3[nH]c(-c4cc5cc(-c6cn[nH]c6)ccc5[nH]c4=O)cc3c2)CC1` [3-(5-((4-(2-methoxyacetyl)piperazin-1-yl)methyl)-1H-indol-2-yl)-6-(1H-pyrazol-4-yl)quinolin-2(1H)-one], the pEC50 is 5.94.

`N#Cc1ccc2[nH]c(=O)c(-c3cc4cc(CN5CCC(CN)CC5)ccc4[nH]3)cc2c1` [3-(5-((4-(aminomethyl)piperidin-1-yl)methyl)-1H-indol-2-yl)-2-oxo-1,2-dihydroquinoline-6-carbonitrile] had a pEC50 of 5.43.

Regarding `NCC1CCN(Cc2ccc3[nH]c(-c4cc5cc(C(N)=O)ccc5[nH]c4=O)cc3c2)CC1` [3-(5-((4-(aminomethyl)piperidin-1-yl)methyl)-1H-indol-2-yl)-2-oxo-1,2-dihydroquinoline-6-carboxamide], the pEC50 was 5.41.

With `CC(=O)N1CCN(Cc2ccc3[nH]c(-c4cc5cc(-c6cnn(C)c6)ccc5[nH]c4=O)cc3c2)CC1` [3-(5-((4-acetylpiperazin-1-yl)methyl)-1H-indol-2-yl)-6-(1-methyl-1H-pyrazol-4-yl)quinolin-2(1H)-one], the pEC50 is 6.38. Against the preceding molecule, the pEC50 is 0.97 log units higher.

On to `CC(=O)N1CCN(Cc2ccc3[nH]c(-c4cc5cc(-c6cn[nH]c6)ccc5[nH]c4=O)cc3c2)CC1` [3-(5-((4-acetylpiperazin-1-yl)methyl)-1H-indol-2-yl)-6-(1H-pyrazol-4-yl)quinolin-2(1H)-one], for which the pEC50 is 6.06.

The molecule `O=c1[nH]c2ccc(-c3cn[nH]c3)cc2cc1-c1cc2cc(CN3CCC(F)CC3)ccc2[nH]1` [3-(5-((4-fluoropiperidin-1-yl)methyl)-1H-indol-2-yl)-6-(1H-pyrazol-4-yl)quinolin-2(1H)-one] gave a pEC50 of 6.92. Compared with the last molecule, the pEC50 is 0.86 log units higher.

Consider `O=c1[nH]c2ccc(-c3cn[nH]c3)cc2cc1-c1cc2cc(CN3CCOCC3)ccc2[nH]1` [3-(5-(morpholinomethyl)-1H-indol-2-yl)-6-(1H-pyrazol-4-yl)quinolin-2(1H)-one], for which the negative logarithm of the EC50 (pEC50) was 6.77.

For the molecule `O=c1[nH]c2ccc(-n3ccnn3)cc2cc1-c1cc2cc(CN3CCCCC3)ccc2[nH]1` [3-(5-(piperidin-1-ylmethyl)-1H-indol-2-yl)-6-(1H-1,2,3-triazol-1-yl)quinolin-2(1H)-one], the pEC50 was 6.64.

Consider `O=c1[nH]c2ccc(-c3cc[nH]n3)cc2cc1-c1cc2cc(CN3CCCCC3)ccc2[nH]1` [3-(5-(piperidin-1-ylmethyl)-1H-indol-2-yl)-6-(1H-pyrazol-3-yl)quinolin-2(1H)-one], for which the pEC50 is 6.60. This pEC50 and that of the molecule before are within 0.2 log units of each other.

`O=c1[nH]c2ccc(-n3nccn3)cc2cc1-c1cc2cc(CN3CCCCC3)ccc2[nH]1` [3-(5-(piperidin-1-ylmethyl)-1H-indol-2-yl)-6-(2H-1,2,3-triazol-2-yl)quinolin-2(1H)-one] gave a pEC50 of 6.06.

In turn, `Cn1cc(-c2ccc3[nH]c(=O)c(-c4cc5cc(CN6CCCCC6)ccc5[nH]4)cc3c2)cn1` [6-(1-methyl-1H-pyrazol-4-yl)-3-(5-(piperidin-1-ylmethyl)-1H-indol-2-yl)quinolin-2(1H)-one] had a negative logarithm of the EC50 (pEC50) of 6.89. Compared with the last molecule, the pEC50 is 0.83 log units higher.

With `O=c1[nH]c2ccc(-n3ccnc3)cc2cc1-c1cc2cc(CN3CCCCC3)ccc2[nH]1` [6-(1H-imidazol-1-yl)-3-(5-(piperidin-1-ylmethyl)-1H-indol-2-yl)quinolin-2(1H)-one], the pEC50 was 6.49.

Molecule `Cn1nnc(-c2ccc3[nH]c(=O)c(-c4cc5cc(CN6CCCCC6)ccc5[nH]4)cc3c2)n1` [6-(2-methyl-2H-tetrazol-5-yl)-3-(5-(piperidin-1-ylmethyl)-1H-indol-2-yl)quinolin-2(1H)-one] gave a pEC50 of 5.89.

`O=c1[nH]c2ccc(-c3cccc(O)c3)cc2cc1-c1cc2cc(CN3CCCCC3)ccc2[nH]1` [6-(3-hydroxyphenyl)-3-(5-(piperidin-1-ylmethyl)-1H-indol-2-yl)quinolin-2(1H)-one] gave a pEC50 of 5.20.

`COc1cc(-c2ccc3[nH]c(=O)c(-c4cc5cc(CN6CCCCC6)ccc5[nH]4)cc3c2)ccc1O` [6-(4-hydroxy-3-methoxyphenyl)-3-(5-(piperidin-1-ylmethyl)-1H-indol-2-yl)quinolin-2(1H)-one] showed a pEC50 below 5.00.

Take `O=c1[nH]c2ccc(-c3cnsc3)cc2cc1-c1cc2cc(CN3CCCCC3)ccc2[nH]1` [6-(isothiazol-4-yl)-3-(5-(piperidin-1-ylmethyl)-1H-indol-2-yl)quinolin-2(1H)-one]: the pEC50 is 6.72.

Regarding `O=c1[nH]c2ccc(Br)cc2cc1-c1cc2cc(CN3CCCCC3)ccc2[nH]1` [6-bromo-3-(5-(piperidin-1-ylmethyl)-1H-indol-2-yl)quinolin-2(1H)-one], the pEC50 was 6.34. Against the preceding molecule, the pEC50 is 0.38 log units lower.

The record behind these values is BindingDB's records for doi:10.1016/j.bmcl.2006.08.053 (Merck Research Laboratories, 2006).
